Measured values: US12139473B2, “Substituted-N-heteroaryl compounds and uses thereof” (Bionomics Limited, priority 2019, dated 2024)

Target: T1, hKv3.1 (Homo sapiens, UniProt P48547)
T1 construct: expressed in transfected cells
T1 sequence (P48547 1-511): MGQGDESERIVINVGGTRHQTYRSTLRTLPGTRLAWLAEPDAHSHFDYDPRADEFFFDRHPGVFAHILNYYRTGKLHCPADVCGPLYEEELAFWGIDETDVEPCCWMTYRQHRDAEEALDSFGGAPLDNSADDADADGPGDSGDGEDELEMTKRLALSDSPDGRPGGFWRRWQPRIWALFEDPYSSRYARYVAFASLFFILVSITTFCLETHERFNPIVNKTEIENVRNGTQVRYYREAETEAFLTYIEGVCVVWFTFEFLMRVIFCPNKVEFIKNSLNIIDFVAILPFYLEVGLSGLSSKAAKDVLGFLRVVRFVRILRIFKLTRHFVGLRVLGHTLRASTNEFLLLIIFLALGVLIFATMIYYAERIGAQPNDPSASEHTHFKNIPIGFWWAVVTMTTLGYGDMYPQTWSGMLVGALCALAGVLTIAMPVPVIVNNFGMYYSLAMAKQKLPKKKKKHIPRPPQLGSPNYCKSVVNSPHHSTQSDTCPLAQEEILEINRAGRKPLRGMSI
Assay: Automated patch clamp electrophysiology (Patchliner), CHO/Kv3.1 cells
Format: cell-based
Conditions: 10 μM compound, hKv3.1 in CHO-K1, whole-cell; for Kv3.1 Activity at 10 μM Potentiation (%): peak current at voltage step of −10 mV vs vehicle (0.33% DMSO); for Kv3.1 Activity at 10 μM Voltage Shift (mV): voltage shift of the IV curve at V1/2
Description: hKv3.1, hKv3.2, hKv3.3, and hKv3.4 were stably expressed in CHO-K1 (Chinese hamster ovary) cells and kept under constant antibiotic selection. For in vitro assays, cells were maintained in appropriate growth medium at 37° C. and 5% CO2 in a humidified incubator.
hKv3.X expressing cells were plated in T-25 flasks for 3-4 days at 37° C. (no selection antibiotic) prior to use and grown to 80% confluence. Cells were washed twice with PBS (calcium and magnesium free) and detached with a 5-minute treatment at 37° C. with 2-3 mls of Accutase®. Cells were collected, and flask was washed in CHO-SFM II media (Life Technologies Gibco), centrifuged for 2 minutes at ˜110×g and resuspended to obtain a single cell suspension of ˜2-3×10^6 cells/ml.
The intracellular solution contained the following (in mM): KCl 50, NaCl 10, KF 60, EGTA 20, HEPES 10, adjusted to pH 7.2 with KOH and an osmolarity of 285 mOsmol. Seal enhancer was purchased from Nanion (80 mM NaCl, 3 mM KCl, 10 mM MgCl2, 35 mM CaCl2), 10 mM HEPES, pH7.4, 298 mOsmol. The external solution contained (in mM): NaCl 140, KCl 4, CaCl2) 2, MgCl2 1, HEPES 10, Glucose 5, adjusted to pH7.4 and an osmolarity of 298 mOsmol.
All compounds were initially tested at 10 uM at a final DMSO concentration of 0.33%. Compounds were dissolved in dimethylsulfoxide (DMSO) at a stock concentration of 30 mM. The compound was further diluted 1:10 to give a stock concentration of 3 mM in DMSO. The final assay solution was diluted 1:300 in External solution to give a final concentration of 10 uM. For the DMSO Control Buffer 30 uL of DMSO was added to 10 mL buffer.
All electrophysiological recordings were performed at ambient temperature (21-23° C.) using automated patch clamp (Patchliner, Nanion Technologies GmbH) in the whole-cell configuration.
Cell membrane potentials were held at −80 mV, and currents were evoked by voltage steps (1000 ms duration) from −60 to +60 mV in 10 mV increments. This was performed first with vehicle (0.33% DMSO) and then with 10 uM compound, after a 3-minute incubation period. Data was taken from 4 cells per assay.
The recordings were analysed and selected using peak current amplitude (>100 pA at the −10 mV voltage step) in the absence of compound to eliminate unsuitable cells from analysis. Peak current amplitude was measured and recorded for each voltage step and data was normalised to the maximum current at +60 mV. The normalised Kv3.x currents following addition of the compound were then compared with the currents recorded prior to compound addition (vehicle control). Positive modulation was determined as % potentiation at the voltage step of −10 mV=[current (cmpd)/current (veh)]*100−100. % potentiation≥50% was considered acceptable. In addition, voltage shift of the IV curve at V1/2 was measured. V1/2 of ≥−5 mV was also considered acceptable. IV curves were plotted in GraphPad Prism (software version 6.0) and fitted with a Boltzmann equation, where V1/2 is the voltage at half-maximal activation.

SMILES	Kv3.1 Activity at 10 μM Potentiation (%)	Kv3.1 Activity at 10 μM Voltage Shift (mV)
COc1ccc(C)c(Oc2cc(N3C(=O)NC(C)(C)C3=O)ncn2)c1 [Example 18, 3-[6-(2-methyl-5-methoxy-phenoxy)pyrimidin-4-yl]-5,5-dimethyl-imidazolidine-2,4-dione]	53	−2.7 mV
COc1cc(Oc2cncc(N3C(=O)NC(C)(C)C3=O)n2)ccc1F [Example 54, 3-[6-(4-fluoro-3-methoxy-phenoxy)pyrazin-2-yl]-5,5-dimethyl-imidazolidine-2,4-dione]	15	−0.5 mV
COc1cc(Oc2cc(N3C(=O)N[C@](C)(C(C)C)C3=O)ncn2)ccc1C [Example 8, (5R)-5-isopropyl-3-[6-(3-methoxy-4-methyl-phenoxy)pyrimidin-4-yl]-5-methyl-imidazolidine-2,4-dione]	48	−3.1 mV
COc1cc(Oc2cnnc(N3C(=O)NC(C)(C)C3=O)c2)ccc1C [Example 77, 3-[5-(3-methoxy-4-methyl-phenoxy)pyridazin-3-yl]-5,5-dimethyl-imidazolidine-2,4-dione]	26	−2.4 mV
COc1cc(Oc2ccnc(N3C(=O)NC(C)(C)C3=O)n2)ccc1C [Example 60, 3-[4-(3-methoxy-4-methyl-phenox)pyrimidin-2-yl]-5,5-dimethyl-imidazolidine-2,4-dione]	22	−2.0 mV
CC1(C)NC(=O)N(c2cc(Oc3cccnc3)ncn2)C1=O [Example 23, 5,5-dimethyl-3-[6-(3-pyridyloxy)pyrimidin-4-yl]imidazolidine-2,4-dione]	28	−0.9 mV
COc1ccccc1Oc1cc(N2C(=O)NC(C)(C)C2=O)ncn1 [Example 9, 3-[6-(2-methoxyphenoxy)pyrimidin-4-yl]-5,5-dimethyl-imidazolidine-2,4-dione]	22	−2.2 mV
CC1(C)NC(=O)N(c2cc(Oc3ccc4c(c3)OCCC4)ncn2)C1=O [Example 33, 3-(6-chroman-7-yloxypyrimidin-4-yl)-5,5-dimethyl-imidazolidine-2,4-dione]	33	−1.6 mV
COc1cc(Oc2cc(N3C(=O)NC4(CCC4)C3=O)ncn2)ccc1C [Example 5, 7-[6-(3-methoxy-4-methyl-phenoxy)pyrimidin-4-yl]-5,7-diazaspiro[3.4]octane-6,8-dione]	35	−3.2 mV
Cc1ccc(Oc2cc(N3C(=O)NC(C)(C)C3=O)ncn2)cc1OC(C)C [Example 38, 3-[6-(3-isopropoxy-4-methyl-phenoxy)pyrimidin-4-yl]-5,5-dimethyl-imidazolidine-2,4-dione]	18	−2.0 mV
CCc1cc(Oc2cc(N3C(=O)NC(C)(C)C3=O)ncn2)ccc1C [Example 30, 3-[6-(3-ethyl-4-methylphenoxy)pyrimidin-4-yl]-5,5-dimethyl-imidazolidine-2,4-dione]	63	−2.1 mV
Cc1ccccc1Oc1cc(N2C(=O)NC(C)(C)C2=O)ncn1 [Example 26, 3-[6-(2-methylphenoxy)pyrimidin-4-yl]-5,5-dimethyl-imidazolidine-2,4-dione]	17	−2.2 mV
Cc1cccc(Oc2cc(N3C(=O)NC(C)(C)C3=O)ncn2)c1 [Example 27, 3-[6-(3-methylphenoxy)pyrimidin-4-yl]-5,5-dimethyl-imidazolidine-2,4-dione]	−17	+2.11 mV
CC(C)c1cc(Oc2ccnc(N3C(=O)NC(C)(C)C3=O)n2)ccc1C#N [Example 61, 4-[2-(4,4-dimethyl-2,5-dioxo-imidazolidin-1-yl)pyrimidin-4-yl]oxy-2-isopropyl-benzonitrile]	21	−1.6 mV
Cc1ccc(Oc2cc(N3C(=O)NC(C)(C)C3=O)ncn2)cn1 [Example 24, 5,5-dimethyl-3-[6-[(6-methyl-3-pyridyl)oxy]pyrimidin-4-yl]imidazolidine-2,4-dione]	33	−4.0 mV
CC[C@H]1NC(=O)N(c2nccc(Oc3ccc(C#N)cc3C(C)(C)C)n2)C1=O [Example 57, 3-tert-butyl-4-[2-[(4R)-4-ethyl-2,5-dioxo-imidazolidin-1-yl]pyrimidin-4-yl]oxy-benzonitrile]	−7	+0.8 mV
CCC1(CC)NC(=O)N(c2cc(Oc3ccc(C)c(OC)c3)ncn2)C1=O [Example 4, 3-[6-(3-methoxy-4-methyl-phenoxy)pyrimidin-4-yl]-5,5-diethyl-imidazolidine-2,4-dione]	25	−0.9 mV
CCOc1cc(Oc2cc(N3C(=O)NC(C)(C)C3=O)ncn2)ccc1C [Example 36, 3-[6-(3-ethoxy-4-methyl-phenoxy)pyrimidin-4-yl]-5,5-dimethyl-imidazolidine-2,4-dione]	17	−3.3 mV
CC1(C)NC(=O)N(c2cc(Oc3cccc4c3CCC4)ncn2)C1=O [Example 32, 3-(6-indan-4-yloxypyrimidin-4-yl)-5,5-dimethyl-imidazolidine-2,4-dione]	13	−1.3 mV
COc1cccc(Oc2cc(N3C(=O)NC(C)(C)C3=O)ncn2)c1 [Example 10, 3-[6-(3-methoxyphenoxy)pyrimidin-4-yl]-5,5-dimethyl-imidazolidine-2,4-dione]	3	+0.4 mV
COc1ccc(Oc2cc(N3C(=O)NC(C)(C)C3=O)ncn2)cc1F [Example 12, 3-[6-(3-fluoro-4-methoxy-phenoxy)pyrimidin-4-yl]-5,5-dimethyl-imidazolidine-2,4-dione]	13	−0.3 mV
COc1cccc(Oc2cc(N3C(=O)NC(C)(C)C3=O)ncn2)c1C(C)C [Example 40, 3-[6-(2-isopropyl-3-methoxy-phenoxy)pyrimidin-4-yl]-5,5-dimethyl-imidazolidine-2,4-dione]	23	−2.1 mV
Cc1ccc(Oc2cc(N3C(=O)NC(C)(C)C3=O)ncn2)cc1C [Example 29, 3-[6-(3,4-dimethylphenoxy)pyrimidin-4-yl]-5,5-dimethyl-imidazolidine-2,4-dione]	10	−1.6 mV
Cc1ccc(Oc2cc(N3C(=O)NC(C)(C)C3=O)ncn2)cc1C#N [Example 22, 5-[6-(4,4-dimethyl-2,5-dioxo-imidazolidin-1-yl)pyrimidin-4-yl]oxy-2-methyl-benzonitrile]	31	−2.3 mV
